Test results taken from patent US5994563A, “Arylmethylphosphonic acid derivatives useful in treating bone wasting diseases” (Ortho Pharmaceutical Corporation, priority 1999, dated 1999).
Read-outs that look alike come from different tables or passages of the source.

Key:
[1] = target: human osteoblastic (TE85) tyrosinephosphate phosphatase; format: biochemical; details: for IC50: read-out: TF85 IC50
CD45 [2] = target: T1, CD45 (Homo sapiens, UniProt P08575); details: read-out: IC50 (CD45)
T1 sequence (P08575 26-1306): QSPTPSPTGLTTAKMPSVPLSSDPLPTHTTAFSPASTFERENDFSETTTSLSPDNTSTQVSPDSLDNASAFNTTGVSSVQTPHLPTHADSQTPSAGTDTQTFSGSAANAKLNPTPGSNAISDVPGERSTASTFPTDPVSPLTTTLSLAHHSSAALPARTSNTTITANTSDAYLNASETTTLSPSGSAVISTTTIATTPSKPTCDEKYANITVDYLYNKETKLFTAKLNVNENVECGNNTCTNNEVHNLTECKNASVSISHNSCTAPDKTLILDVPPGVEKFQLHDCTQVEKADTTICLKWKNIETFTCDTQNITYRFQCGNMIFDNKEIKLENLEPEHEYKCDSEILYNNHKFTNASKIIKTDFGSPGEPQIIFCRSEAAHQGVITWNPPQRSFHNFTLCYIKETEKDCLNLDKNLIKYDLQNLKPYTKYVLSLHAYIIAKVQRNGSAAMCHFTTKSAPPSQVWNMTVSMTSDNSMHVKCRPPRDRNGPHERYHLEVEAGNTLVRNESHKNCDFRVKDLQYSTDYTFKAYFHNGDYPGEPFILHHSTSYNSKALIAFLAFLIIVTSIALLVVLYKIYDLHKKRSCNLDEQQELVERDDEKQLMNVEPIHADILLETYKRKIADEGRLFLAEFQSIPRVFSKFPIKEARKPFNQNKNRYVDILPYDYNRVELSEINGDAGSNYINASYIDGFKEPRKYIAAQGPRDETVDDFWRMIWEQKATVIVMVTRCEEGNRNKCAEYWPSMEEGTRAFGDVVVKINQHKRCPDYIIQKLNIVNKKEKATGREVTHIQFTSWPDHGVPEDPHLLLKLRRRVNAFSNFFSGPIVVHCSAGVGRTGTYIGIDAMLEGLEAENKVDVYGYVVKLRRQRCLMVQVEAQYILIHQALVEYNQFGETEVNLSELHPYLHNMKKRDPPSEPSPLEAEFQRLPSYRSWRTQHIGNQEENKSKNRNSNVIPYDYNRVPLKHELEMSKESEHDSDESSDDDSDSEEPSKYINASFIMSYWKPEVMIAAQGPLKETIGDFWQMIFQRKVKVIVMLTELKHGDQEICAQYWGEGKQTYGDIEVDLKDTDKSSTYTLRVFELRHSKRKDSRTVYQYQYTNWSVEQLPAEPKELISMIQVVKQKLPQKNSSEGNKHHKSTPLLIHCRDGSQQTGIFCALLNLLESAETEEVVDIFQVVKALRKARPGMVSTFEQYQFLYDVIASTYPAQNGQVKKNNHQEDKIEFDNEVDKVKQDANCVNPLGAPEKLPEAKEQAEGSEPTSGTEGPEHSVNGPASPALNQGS

[3] = tested on: human TE85 osteoblast-line cells; assay: Osteoblast Cell Proliferation (3H-thymidine incorporation); format: cell-based; details: 24 h, read-out: Osteoblast Cell Prolif % X Control; for activity at 100 µM: concentration of drug 100 μM
Description: The action of select compounds to stimulate osteoblast growth can be measured in culture by assuming the rate of DNA synthesis is proportional to the rate of ^3 H-thymidine incorporation into DNA. Only cells undergoing mitosis will synthesize new DNA and thus only these cells will incorporate the radiolabelled DNA-specific thymidine. The stimulation of the proliferation and differentiation of bone-forming cells, osteoblasts, is a prerequisite for an increase in bone formation and bone mass. The ability of agents to increase osteoblast proliferation and differentiation can be predicted (reference) by their action on cultured osteoblast-line cells in vitro. In this test human TE85 osteoblast-line cells (100,000) were plated on 24 well plates in DMEM containing 5% fetal calf serum for 48 hours. After removal of the media, 0.3 mL of serum-free media containing 0.25% BSA was added to each well. After 24 hours, the treatments were added to the conditioned media for an additional 24 hours. Tritiated thymidine (0.6uCi) was added for the last two hours. After rinsing the cells with Dulbeccos PBS, the cells were released from the plate by trypsinizing with 0.25 mL trypsin (0.25%) for 5-10 min. An equal aliquot of 25% TCA was added and the cell lysate allowd to stand for 15 minutes at 4° C. The lysate was centrifuged for 10 minutes, the supernatant removed, and the pellet washed with 0.2 mL of cold 80% ethanol. After a second centrifugation, the pellet was suspended in 0.1 mL 0.1% Triton X-1 00. The pellet was then sonicated to remove all of the material from the sides of the tube. This material was placed into a scintillation vial. An additional 0.08 mL of the Triton was used to rinse the tube before placing into the vial. These mbined samples were quantitated by scintillation spectrometry.

CD45 [4] = target: T1, CD45; assay: biochemical

## O=[N+]([O-])c1ccc(-c2ccccc2)c(C(O)P(=O)(O)O)c1 (centres unmarked) [Example 59, (2-Phenyl-5-nitro) phenylhydroxymethylphosphonic acid]
[1]
  IC50: 10 µM

## Cc1cccc(CSc2ccc([N+](=O)[O-])cc2C(O)P(=O)(O)O)c1 (centres unmarked) [Example 30, [2-(3-Methyl)benzylthio-5-nitro]phenylhydroxymethyl phosphonic acid]
[1]
  IC50: 4.4 µM

## O=[N+]([O-])c1ccc(Sc2ccc(Cl)cc2)c(C(O)P(=O)(O)O)c1 (centres unmarked) [Example 19, [2-(4-Chlorophenylthio)-5-nitro]phenylhydroxymethylphosphonic acid]
CD45 [2]; pH 6
  IC50: 28 µM
[1]; te85 cell extract, 15 min
  TF85 % @ 300 μM: 95%

## O=[N+]([O-])c1ccc(C(O)P(=O)(O)O)s1 (centres unmarked) [Example 43, 5-Nitro-2-thiophenehydroxymethylphosphonic acid]
[1]
  IC50: 1 µM

## O=[N+]([O-])c1ccc(O)c(C(O)P(=O)(O)O)c1 (centres unmarked) [Example 7, (2-Hydroxy-5-nitro)phenylhydroxymethylphosphonic acid]
[1]
  IC50: 30 µM

## O=[N+]([O-])c1cc(C(O)P(=O)(O)O)ccc1OCc1ccc(Cl)c(Cl)c1 (centres unmarked) [Example 56, [3-Nitro-4-(3,4-dichlorobenzyloxy)]phenylhydroxymethylphosphonic acid]
[1]
  IC50: 30 µM

## O=[N+]([O-])c1ccc(SC2CCCCC2)c(C(O)P(=O)(O)O)c1 (centres unmarked) [Example 26, (2-Cyclohexylthio-5-nitro)phenylhydroxymethylphosphonic acid]
[3]
  activity at 100 µM: 138%
CD45 [2]; pH 6
  IC50: 1.2 µM
[1]
  IC50: 5.8 µM

## Cc1ccccc1CSc1ccc([N+](=O)[O-])cc1C(O)P(=O)(O)O (centres unmarked) [Example 29, [2-(2-Methyl)benzylthio-5-nitro]phenylhydroxymethyl phosphonic acid]
[1]
  IC50: 9.4 µM

## O=[N+]([O-])c1ccc(Oc2ccccc2)c(C(O)P(=O)(O)O)c1 (centres unmarked) [Example 12, (2-Phenoxy-5-nitro)phenylhydroxymethylphosphonic acid]
[3]
  activity at 100 µM: 112%
CD45 [4]
  IC50: 14 µM
[1]
  IC50: 18 µM

## Cc1ccc(CCSc2ccc([N+](=O)[O-])cc2C(O)P(=O)(O)O)cc1 (centres unmarked) [Example 32, [2-(4-Methylphenylethylthio)-5-nitro]phenyl-hydroxymethyl phosphonic acid]
[1]; te85 cell extract, 15 min
  TF85 % @ 300 μM: 73%

## O=[N+]([O-])c1ccc(SCc2ccccc2)c(C(O)P(=O)(O)O)c1 (centres unmarked) [Example 28, (2-Benzylthio-5-nitro)phenylhydroxymethylphosphonic acid]
[3]
  activity at 100 µM: 111%
CD45 [4]
  IC50: 6 µM
[1]
  IC50: 6.3 µM

## O=[N+]([O-])c1ccc(Sc2ccccc2)c(C(O)P(=O)(O)O)c1 (centres unmarked) [Example 17, (2-Phenylthio-5-nitro)phenylhydroxymethylphosphonic acid]
[3]
  activity at 100 µM: 119%
[1]
  IC50: 28 µM

## CCCCCCSc1ccc([N+](=O)[O-])cc1C(O)P(=O)(O)O (centres unmarked) [Example 38, [2-(1-N-hexanyl)thio-5-nitro]phenylhydroxy-methylphosphonic acid]
[1]
  IC50: 1 µM

## COc1ccccc1Sc1ccc([N+](=O)[O-])cc1C(O)P(=O)(O)O (centres unmarked) [Example 24, [2-(2-Methoxyphenylthio)-5-nitro]phenylhydroxymethylphosphonic acid]
[1]
  IC50: 23 µM

## Cc1ccc(C(O)P(=O)(O)O)cc1[N+](=O)[O-] (centres unmarked) [Example 52, (3-Nitro-4-methyl)phenylhydroxymethyphosphonic acid]
[1]
  IC50: 30 µM

## O=[N+]([O-])c1cc(C(O)P(=O)(O)O)cs1 (centres unmarked) [Example 40, 2-Nitro-4-thienylhydroxymethylphosphosphonic acid]
CD45 [2]; pH 6
  IC50: 38 µM
[1]; te85 cell extract, 15 min
  TF85 % @ 300 μM: 79%

## Cc1ccc(Oc2ccc([N+](=O)[O-])cc2C(O)P(=O)(O)O)cc1 (centres unmarked) [Example 14, [2-(4-Methyl)phenoxy-5-nitro]phenylhydroxymethyl phosphonic acid]
[1]; te85 cell extract, 15 min
  TF85 % @ 300 μM: 90%

## O=[N+]([O-])c1cc(C(O)P(=O)(O)O)ccc1Sc1ccc(Br)cc1 (centres unmarked) [Example 54, [3-Nitro-4-(4-bromophenylthio)]phenylhydroxymethylphosphonic acid]
[1]; te85 cell extract, 15 min
  TF85 % @ 30 μM: 75%

## O=[N+]([O-])c1ccc(Sc2ccccn2)c(C(O)P(=O)(O)O)c1 (centres unmarked) [Example 22, [2-(2-Pyridyl)thio-5-nitro]phenylhydroxymethyl-phosphonic acid]
CD45 [2]; pH 6
  IC50: 1 µM
[1]
  IC50: 14 µM

## CCCCCCCCCCSc1ccc([N+](=O)[O-])cc1C(O)P(=O)(O)O (centres unmarked) [Example 36, [2-(1-N-decyl)thio-5-nitro]phenylhydroxymethylphosphonic acid]
[1]
  IC50: 1 µM

## O=[N+]([O-])c1ccc(SCCCc2ccccc2)c(C(O)P(=O)(O)O)c1 (centres unmarked) [Example 34, [2-(3-Phenylpropyl)thio-5-nitro]phenylhydroxy-methyl phosphonic acid]
[3]
  activity at 100 µM: 127%
[1]
  IC50: 0.45 µM

## O=[N+]([O-])c1ccc(Oc2cccnc2)c(C(O)P(=O)(O)O)c1 (centres unmarked) [Example 15, [2-(3-Pyridyl)oxy-5-nitro]phenylhydroxymethyl-phosphonic acid]
[1]
  IC50: 33 µM

## O=C(c1cc([N+](=O)[O-])ccc1Cl)P(=O)(O)O [Example 58, (2-Chloro-5-nitro)phenyloxomethylphosphonic acid]
[1]
  IC50: 5 µM

## Cc1ccc(CSc2ccc([N+](=O)[O-])cc2C(O)P(=O)(O)O)cc1 (centres unmarked) [Example 31, [2-(4-Methyl)benzylthio-5-nitro]phenylhydroxymethylphosphonic acid]
[3]; concentration of drug 30 μM
  activity at 30 µM: 159%
[1]
  IC50: 0.82 µM

## O=[N+]([O-])c1ccc(Sc2cccc(C(F)(F)F)c2)c(C(O)P(=O)(O)O)c1 (centres unmarked) [Example 20, [2-(3-Trifluoromethyl)phenylthio-5-nitro]phenylhydroxymethylphosphonic acid]
[3]
  activity at 100 µM: 139%
[1]
  IC50: 2.4 µM

## O=Cc1ccc(OC(=O)c2ccccc2)c([N+](=O)[O-])c1 [Example 50, 3-Nitro-4-benzoyloxybenzaldehyde]
[1]
  IC50: 17 µM

## O=[N+]([O-])c1ccc(Cl)c(C(O)P(=O)(O)O)c1 (centres unmarked) [Example 2, (2-Chloro-5-nitro)phenylhydroxymethylphosphonic acid]
CD45 [2]; enzyme from Jurkat cell (JEG-6) membranes, pH 6.0, 90 minutes at 37° C.
  IC50: 20 µM
[1]
  IC50: 35 µM
